Results from the NIST ThermoML archive (doi:10.1016/j.jct.2017.12.023).
Numbers after ± are expanded uncertainties.

Assay: xn = mol fraction of the nth substance listed
Conditions: 100 kPa, Liquid; for viscosity: Concentric cylinders viscometry; for mass density: Vibrating tube method

CCOS(=O)(=O)[O-].CCn1cc[n+](C)c1 [1-ethyl-3-methylimidazolium ethyl sulfate] + CCCCCCO
Conditions | mass density, 288.15 K [kg/m3] | mass density, 293.15 K [kg/m3] | mass density, 298.15 K [kg/m3] | mass density, 303.15 K [kg/m3] | viscosity, 288.15 K [mPa·s] | viscosity, 293.15 K [mPa·s] | viscosity, 298.15 K [mPa·s] | viscosity, 303.15 K [mPa·s]
x1 = 0.1016 | 883.62 ± 1.5 | 880.04 ± 1.5 | 876.47 ± 1.5 | 872.88 ± 1.5 | 9.353 ± 0.1 | 7.885 ± 0.086 | 6.825 ± 0.074 | 5.918 ± 0.064
x1 = 0.2016 | 938.59 ± 1.5 | 935.01 ± 1.5 | 931.44 ± 1.5 | 927.87 ± 1.5 | 13.3 ± 0.14 | 11.15 ± 0.12 | 9.64 ± 0.1 | 8.313 ± 0.09
x1 = 0.3005 | 988.2 ± 1.5 | 984.62 ± 1.5 | 981.06 ± 1.5 | 977.51 ± 1.5 | 18.78 ± 0.2 | 15.65 ± 0.17 | 13.44 ± 0.14 | 11.56 ± 0.12
x1 = 0.3989 | 1033.38 ± 1.5 | 1029.83 ± 1.5 | 1026.28 ± 1.5 | 1022.76 ± 1.5 | 26.42 ± 0.28 | 21.79 ± 0.23 | 18.54 ± 0.2 | 15.8 ± 0.17
x1 = 0.4975 | 1075.01 ± 1.5 | 1071.48 ± 1.5 | 1067.96 ± 1.5 | 1064.47 ± 1.5 | 36.71 ± 0.4 | 29.93 ± 0.32 | 25.04 ± 0.27 | 21.17 ± 0.23
x1 = 0.5956 | 1113.22 ± 1.5 | 1109.72 ± 1.5 | 1106.23 ± 1.5 | 1102.76 ± 1.5 | 50.2 ± 0.52 | 40.24 ± 0.43 | 33.31 ± 0.36 | 27.85 ± 0.3
x1 = 0.6647 | 1138.48 ± 1.5 | 1135 ± 1.5 | 1131.53 ± 1.5 | 1128.08 ± 1.5 | 61.57 ± 0.66 | 48.86 ± 0.53 | 40.06 ± 0.43 | 33.14 ± 0.36
x1 = 0.7947 | 1182.52 ± 1.5 | 1179.07 ± 1.5 | 1175.63 ± 1.5 | 1172.21 ± 1.5 | 90.12 ± 1.1 | 69.76 ± 0.78 | 55.99 ± 0.58 | 45.6 ± 0.49
x1 = 0.897 | 1214.13 ± 1.6 | 1210.7 ± 1.6 | 1207.28 ± 1.6 | 1203.87 ± 1.5 | 117.32 ± 1.7 | 90.21 ± 1.1 | 71.04 ± 0.8 | 57.05 ± 0.6
x1 = 1 | 1243.07 ± 1.6 | 1239.66 ± 1.6 | 1236.27 ± 1.6 | 1232.87 ± 1.6 | 155.55 ± 2.7 | 117.88 ± 1.8 | 91.26 ± 1.2 | 72.1 ± 0.81
